According to patent US20150166523A1, “BRANCHED CHAIN ALKYL HETEROAROMATIC RING DERIVATIVE” (TAISHO PHARMACEUTICAL CO., LTD., priority 2012, published 2015):

Assays:
[1] = molecular target: T1, orexin-2 receptor (hOX2R) (Homo sapiens, UniProt O43614); experiment: Measurement of orexin antagonistic activity (intracellular Ca2+ fluorescence, FDSS) on hOX2R; type: cell-based; conditions: CHO cells forcibly expressing hOX2R; Fluo-4AM; ligand peptide (substituted human orexin-A) 3 nM; compound preincubated 30 minutes; read-out: IC50 Value OX2
T1 construct: expressed in transfected cells; host or cells: Chinese hamster ovary (CHO) cells
T1 sequence (O43614 1-444): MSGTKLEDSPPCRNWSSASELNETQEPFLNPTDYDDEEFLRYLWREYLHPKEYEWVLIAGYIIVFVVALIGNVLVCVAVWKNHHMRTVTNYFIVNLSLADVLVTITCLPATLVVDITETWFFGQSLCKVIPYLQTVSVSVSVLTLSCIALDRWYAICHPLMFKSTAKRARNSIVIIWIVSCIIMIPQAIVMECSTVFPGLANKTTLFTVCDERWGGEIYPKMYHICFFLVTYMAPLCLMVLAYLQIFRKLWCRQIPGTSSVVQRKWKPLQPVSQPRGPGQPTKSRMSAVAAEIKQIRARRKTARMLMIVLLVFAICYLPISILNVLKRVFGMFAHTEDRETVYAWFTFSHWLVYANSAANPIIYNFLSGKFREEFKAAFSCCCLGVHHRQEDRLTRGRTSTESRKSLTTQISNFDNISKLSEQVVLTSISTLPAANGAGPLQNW
In short: (§1)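 CHO cells stably expressing hOX1R or hOX2R, loaded with 0.5 μM Fluo-4AM in HEPES/HBSS buffer with 0.1% BSA and 2.5 mM probenecid, pH 7.4, then preincubated 30 min with compound. Fluorescence recorded each second for 3 min by FDSS; maximum intensity taken as intracellular Ca2+ indicator of antagonism.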

[2] = molecular target: T2, human orexin-1 receptor (hOX1R) (Homo sapiens, UniProt O43613); experiment: Measurement of orexin antagonistic activity (intracellular Ca2+ fluorescence, FDSS) on hOX1R; type: cell-based; conditions: CHO cells forcibly expressing hOX1R; Fluo-4AM; ligand peptide (substituted human orexin-A) 300 pM; compound preincubated 30 minutes; read-out: IC50 Value OX1
T2 construct: expressed in transfected cells; host or cells: Chinese hamster ovary (CHO) cells
T2 sequence (O43613 1-425): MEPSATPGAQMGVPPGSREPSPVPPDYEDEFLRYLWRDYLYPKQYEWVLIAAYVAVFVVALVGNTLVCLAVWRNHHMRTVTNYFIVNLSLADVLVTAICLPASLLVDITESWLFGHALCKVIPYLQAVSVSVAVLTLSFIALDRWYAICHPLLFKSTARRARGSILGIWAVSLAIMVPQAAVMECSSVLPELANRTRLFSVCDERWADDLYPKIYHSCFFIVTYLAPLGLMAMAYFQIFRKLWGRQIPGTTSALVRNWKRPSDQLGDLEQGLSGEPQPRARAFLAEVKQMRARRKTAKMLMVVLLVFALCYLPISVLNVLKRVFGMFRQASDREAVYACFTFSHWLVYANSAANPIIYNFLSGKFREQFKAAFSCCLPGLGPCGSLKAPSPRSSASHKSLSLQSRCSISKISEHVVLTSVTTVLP
In short: as §1

Row | IC50 [1] [nM] | IC50 [2] [nM] | SMILES
1 | 86.3 | 30.9 | Cc1ccc(-n2nccn2)c(C(=O)N(CCO)[C@@H](C)Cn2cc(-c3ccc(F)cn3)cn2)c1 [Example 41, N-{(2S)-1-[4-(5-Fluoropyridin-2-yl)-1H-pyrazol-1-yl]propan-2-yl}-N-(2-hydroxyethyl)-5-methyl-2-(2H-1,2,3-triazol-2-yl)benzamide]
2 | 1.5 | 0.9 | CCN(C(=O)c1cc(C)ccc1-n1nccn1)[C@@H](C)Cn1cc(-c2cccc(OC)c2)nn1 [Example 101, N-Ethyl-N-{(2S)-1-[4-(3-methoxyphenyl)-1H-1,2,3-triazol-1-yl]propan-2-yl}-5-methyl-2-(2H-1,2,3-triazol-2-yl)benzamide]
3 | 5.7 | 80.3 | Cc1ccc(-n2nccn2)c(C(=O)N(CCO)[C@@H](C)Cn2cc(-c3ccc(F)cc3)nn2)c1 [Example 73, N-{(2S)-1-[4-(4-Fluorophenyl)-1H-1,2,3-triazol-1-yl]propan-2-yl}-N-(2-hydroxyethyl)-5-methyl-2-(2H-1,2,3-triazol-2-yl)benzamide]
4 | 1420 | 988 | CCN(C(=O)c1cc(F)ccc1-c1ncccn1)[C@H](C)Cn1ccc(-c2ccc(F)cn2)n1 [Example 9, N-Ethyl-5-fluoro-N-[(2R)-1-[3-(5-fluoropyridin-2-yl)-1H-pyrazol-1-yl]propan-2-yl)-2-(pyrimidin-2-yl) benzamide]
5 | 41.4 | 9.8 | CC[C@@H](Cn1ccc(-c2ccc(F)cn2)n1)N(C)C(=O)c1cc(C)ccc1-n1nccn1 [Example 24, N-{(2S)-1-[3-(5-Fluoropyridin-2-yl)-1H-pyrazol-1-yl]butan-2-yl}-N,5-dimethyl-2-(2H-1,2,3-triazol-2-yl) benzamide]
6 | 20.8 | 11.9 | C[C@@H](Cn1cc(-c2ccc(F)c(F)c2)cn1)N(C)C(=O)c1cc(F)ccc1-c1ncccn1 [Example 33, N-{(2S)-1-[4-(3,4-Difluorophenyl)-1H-pyrazol-1-yl]propan-2-yl}-5-fluoro-N-methyl-2-(pyrimidin-2-yl)benzamide]
7 | 3150 | 177 | CCN(C(=O)c1cc(F)ccc1-c1ncccn1)[C@@H](C)Cn1cc(-c2ccc(F)cn2)nn1 [Example 81, N-Ethyl-5-fluoro-N-{(2S)-1-[4-(5-fluoropyridin-2-yl)-1H-1,2,3-triazol-1-yl]propan-2-yl}-2-(pyrimidin-2-yl) benzamide]
8 | 75.6 | 6.6 | CCN(C(=O)c1cc(F)ccc1-c1ncccn1)[C@@H](C)Cc1noc(-c2ccc(F)cc2)n1 [Example 53, N-Ethyl-5-fluoro-N-{(2S)-1-[5-(4-fluorophenyl)-1,2,4-oxadiazol-3-yl]propan-2-yl}-2-(pyrimidin-2-yl) benzamide]
9 | 35.7 | 1.2 | CCN(C(=O)c1cc(F)ccc1-c1ncccn1)[C@@H](C)Cn1cc(-c2ccc(F)cc2)cn1 [Example 30, N-Ethyl-5-fluoro-N-{(2S)-1-[4-(4-fluorophenyl)-1H-pyrazol-1-yl]propan-2-yl}-2-(pyrimidin-2-yl)benzamide]
